Assay results reported in US6010890A, “Method for viral inactivation and compositions for use in same” (New York Blood Center, Inc., priority 1997, dated 2000).
Entries after “also recorded” stand apart in the source; their conditions may differ. Where two headings read alike, the source gives them in different places.

How the values were obtained:
baboon RBC = assay: Circulatory survival of baboon RBC after virucidal treatment (preliminary); assay type: in vivo
VSV [1] = assay type: cell-based
VSV [2] = assay type: cell-based; settings: for Light Dose (for ≥6 log10 virus kill): Pc4 2 μM with 4 mM cysteine, 1 mM tocopherol succinate, 0.5 mM carnitine, 670 nm LED
BDV = assay: Virus inactivation in RBCC using Pc4 and red light: BDV (Example 2); assay type: cell-based; settings: for Light Dose (for ≥6 log10 virus kill): Pc4 2 μM with 4 mM cysteine, 1 mM tocopherol succinate, 0.5 mM carnitine, 670 nm LED
RBC [3] = assay: RBC hemolysis during storage following virucidal treatment (Example 1); assay type: cell-based, human
Protocol: FIG. 2 represents RBC hemolysis during storage following virucidal treatment. Pc4 was added into RBCC in the indicated delivery vehicle at a final concentration of 2 μM and exposed to 90 J/cm2 broad band red light at room temperature after the indicated incubation time at room temperature. The treated RBCC were stored at 4° C. prior to assay.
FIG. 4 represents RBC hemolysis during storage following virucidal treatment. PC4 was added to RBCC in the indicated liposomal formulations at 2 μM and exposed to 668 nm light at room temperature and the indicated dose after 5 minutes incubation. The treated RBCC were stored at 4° C. prior to assay.
FIG. 6 represents RBC hemolysis during storage following virucidal treatment. […] The treated RBCC were stored at 4° C. prior to assay.
RBCC samples (3 ml in polystyrene tubes) at hematocrit of 58-60% in ADSOL (obtained from Blood Services, New York Blood Center) were irradiated with red light either as a broad band (600-800 nm) or as a narrow band at 668 nm or 700 nm. Broad band light was from a 300 W xenon lamp (Oriel Corp., Stratford, Conn.) equipped with a cutoff filter (λ>600 nm) with an irradiance of 25 mW/cm^2. Narrow band light (27 nm bandwidth at half-height) was from LED arrays (Efos Canada, Inc., Mississauga, Ontario, Canada) emitting at either 668 nm or 700 nm with an irradiance of 50 mW/cm^2. During irradiation the samples were rotated and rolled on a hematology mixer (Fisher Scientific, Inc., Pittsburgh, Pa.) to obtain even exposure. Temperature was kept at 25 or 4° C. by an air stream of appropriate temperature.
Samples of RBCC were stored after treatment at 4° C. The extent of hemolysis was determined by comparing the hemoglobin in the supernatant to the total hemoglobin. The total hemoglobin was determined by using the Drabkin reagent (Sigma Procedure #525, Sigma Chemical Co., St. Louis, Mo.). The absorption at 540 nm was used to calculate the amount of hemoglobin released in the supernatant.

HIV (cell-assoc.) = assay: Virus inactivation in RBCC using Pc4 and red light: HIV cell-associated (Example 2); assay type: cell-based
HIV (cell-free) = assay: Virus inactivation in RBCC using Pc4 and red light: HIV cell-free (Example 2); assay type: cell-based; settings: for Light Dose (for ≥6 log10 virus kill): HIV (cell-free), Pc4 2 μM with 4 mM cysteine, 1 mM tocopherol succinate, 0.5 mM carnitine, 670 nm LED
HIV = assay type: cell-based
RBC [4] = assay: Binding of Pc4 to RBC in RBCC (HPLC after extraction); assay type: in vitro ADME, human; settings: for Pc4 Bound to RBC: 2 μM
Protocol: The amount of Pc4 bound to RBC in the RBCC was measured using HPLC and extraction procedure described previously (Zuk, M. M., et al. J. Chromat. B Biomed. Appl. 673:220-224 (1995)). Amount of Pc4 was expressed as a percentage of the total recovered in RBCC. Recovery of Pc4 was about 90% (±10%).
^1 Pc4 was added into RBCC at 2 μM final concentration. At various
times thereafter at room temperature, RBC were separated by
centrifugation, rinsed 5 times with PBS, and Pc4 was extracted and
analyzed by HPLC, as described. Pc4 not bound to RBC was recovered
quantitatively from the plasma.
^1 Pc4 was added into RBCC at 2 μM final concentration formulated
in the indicated liposomes. After 35 minutes at 4° C., RBC were
separated by centrifugation, rinsed 5 times with PBS, and Pc4 was analyze

RBC [5] = assay: Hemolysis after 21 day storage of RBCC treated with liposomal Pc4 and formulations of tocopherol succinate (Example 3); assay type: cell-based; settings: with 2 μM liposomal Pc4, 10 J/cm^2, 670 nm, 4° C.
Protocol: RBCC were treated with 2 μM Pc4 in POPC:DOPC=4:1 liposomes in the presence of 1 mM tocopherol succinate in the formulations presented in Table 4 below, and exposed to 10 J/cm^2 of red light (670 nm) emitted by LED array. The RBCC were then stored for 21 days at 4° C.

Protocol for rabbit RBC: Pc4 was added to rabbit RBCC in POPC:DOPS=4:1 liposomes at 2 μM and exposed to 0, 10 and 15 J/cm^2, as indicated, of 700 nm light at room temperature after 5 minutes pre-irradiation incubation. The treated RBCC were labeled with ^51 CrO^2- and their circulatory survival assayed as described in Materials and Methods.
Rabbit RBCC were treated as described for human red cells and their circulatory survival was determined as described previously (Rywkin, S., et al. Photochem. Photobiol. 56:463-469 (1992). Briefly, treated red cells were labelled with 1 μCi/ml Na2 ^51 CrO4 for 1 hour at room temperature and then thoroughly washed with PBS. The labelled cells were infused autologously. At intervals, 1 ml blood was withdrawn and the radioactivity associated with RBC was determined.

CN(C)CCC[Si](C)(C)O[Si]1(O)n2c3c4ccccc4c2N=C2N=C(N=c4c5ccccc5c(n41)=NC1=NC(=N3)c3ccccc31)c1ccccc12 (stereo not drawn) [Pc4, hydroxysiloxydimethylpropyl-N-dimethyl silicon phthalocyanine]
effect on circulatory survival of red cells (baboon RBC; baboon, 10 J/cm^2 of 700 nm light): only a slight effect
24 hour recovery in vivo of the treated RBC (baboon RBC; baboons): exceeded 90%
circulatory half-life and 24 hour recovery (baboon RBC; baboons, liposomal Pc4, 10 J/cm^2, 700 nm): essentially normal
circulatory half-life of RBC (baboon RBC; baboons, liposomal Pc4 and 10 J/cm2 of 700 nm light, from 13.2 days, preliminary): 278 h
inactivation of VSV, 668 vs 700 nm LED (VSV [1]; Pc4 2 μM in POPC:DOPS=4:1 liposomes, 4° C. (FIG. 5)): equally effective
rate of inactivation of VSV, dependence on pre-irradiation incubation time (VSV [1]; liposomal Pc4 2 μM, broad band red light (FIG. 1)): does not depend on time of incubation of liposomal Pc4 prior to light exposure
VSV kill, effect of incubation temperature (VSV [1]; room temperature vs 4° C.): not affected by the incubation temperature
reduction of circulatory survival of red cells (rabbit RBC; rabbit, 10 J/cm^2 of 700 nm light (FIG. 7)): about 30%
24 hour recovery in vivo of the treated RBC (rabbit RBC; rabbits): exceeded 90%
circulatory half-life of RBC (rabbit RBC; rabbits, 10 J/cm^2 of 700 nm light, control 10.5 days (FIG. 7)): 180 h
circulatory half-life and 24 hour recovery (rabbit RBC; rabbits, liposomal Pc4, 10 J/cm^2, 700 nm): close to normal
Light Dose (for ≥6 log10 virus kill) (VSV [2]; Blood Bags (50 ml)): 22 J/cm2
Light Dose (for ≥6 log10 virus kill) (VSV [2]; Test Tubes (3 ml)): 5 J/cm2
virus kill (VSV [2]; at the light doses of Table 3): ≥ 6 log10
Light Dose (for ≥6 log10 virus kill) (BDV; Blood Bags (50 ml)): 30 J/cm2
Light Dose (for ≥6 log10 virus kill) (BDV; Test Tubes (3 ml)): 7 J/cm2
virus kill (BDV; at the light doses of Table 3): ≥ 6 log10
hemolysis development during storage, 668 nm compared with 700 nm LED (RBC [3]; Pc4 2 μM in POPC:DOPS=4:1 liposomes, 10 J/cm^2 (FIG. 6)): much faster
rate of hemolysis during storage, 700 nm LED compared with untreated control (RBC [3]; Pc4 2 μM in POPC:DOPS=4:1 liposomes, 10 J/cm^2 of 700 nm light (FIG. 6)): only slightly faster than in control
RBC damage / hemolysis at equivirucidal doses (RBC [3]; Pc4 2 μM in POPC:DOPS=4:1 liposomes, 668 nm (FIG. 4)): least RBC damage; also recorded: minimal hemolysis
RBC hemolysis during storage, liposomes vs other vehicles (RBC [3]; Pc4 2 μM, 90 J/cm2 broad band red light, 4° C. storage (FIG. 2)): less hemolysis
RBC hemolysis during storage, effect of incubation time (RBC [3]; liposomal Pc4 2 μM, 90 J/cm2 broad band red light (FIG. 2)): incubation for 5 minutes was better than for 30 minutes
hemolysis following a virucidal light dose (RBC [3]; liposomal Pc4, 10 J/cm^2, 700 nm, over 3 weeks storage, 30240 min, 2 µM): ≤ 1%
Light Dose (for ≥6 log10 virus kill) (HIV (cell-assoc.); Blood Bags (50 ml), Pc4 2 μM with 4 mM cysteine, 1 mM tocopherol succinate, 0.5 mM carnitine, 670 nm LED): 55 J/cm2
Light Dose (at this dose only 4 log10 kill) (HIV (cell-assoc.); Test Tubes (3 ml), Pc4 2 μM with 4 mM cysteine, 1 mM tocopherol succinate, 0.5 mM carnitine, 670 nm LED): 15 J/cm2
virus kill (HIV (cell-assoc.); Test Tubes, 15 J/cm2): 4 log10
Light Dose (for ≥6 log10 virus kill) (HIV (cell-free); Blood Bags (50 ml)): 55 J/cm2
Light Dose (for ≥6 log10 virus kill) (HIV (cell-free); Test Tubes (3 ml)): 15 J/cm2
virus kill (HIV (cell-free); HIV, at the light doses of Table 3): ≥ 6 log10
viral reduction of HIV versus RBC hemolysis (HIV): best viral reduction of HIV with the least amount of RBC hemolysis
Pc4 binding to RBC at room temperature compared with 4° C. (RBC [4]; POPC:DOPS=9:1 liposomes, Tables 1 and 2): more binding to RBC than at 4 °C
Pc4 Bound to RBC (RBC [4]; delivery vehicle CRM, incubation time 0 min, room temperature): 59%
Pc4 Bound to RBC (RBC [4]; delivery vehicle CRM, incubation time 5 min, room temperature): 58%
Pc4 Bound to RBC (RBC [4]; delivery vehicle CRM, incubation time 30 min, room temperature): 58%
Pc4 Bound to RBC (RBC [4]; delivery vehicle CRM, incubation time 90 min, room temperature): 64%
Pc4 Bound to RBC (RBC [4]; delivery vehicle DMSO, incubation time 0 min, room temperature): 54%
Pc4 Bound to RBC (RBC [4]; delivery vehicle DMSO, incubation time 5 min, room temperature): 54%
Pc4 Bound to RBC (RBC [4]; delivery vehicle DMSO, incubation time 30 min, room temperature): 56%
Pc4 Bound to RBC (RBC [4]; delivery vehicle DMSO, incubation time 90 min, room temperature): 54%
Pc4 Bound to RBC (RBC [4]; delivery vehicle Liposomes (POPC:DOPS = 9:1), incubation time 0 min, room temperature): 6%
Pc4 Bound to RBC (RBC [4]; delivery vehicle Liposomes (POPC:DOPS = 9:1), incubation time 5 min, room temperature): 9%
Pc4 Bound to RBC (RBC [4]; delivery vehicle Liposomes (POPC:DOPS = 9:1), incubation time 30 min, room temperature): 15%
Pc4 Bound to RBC (RBC [4]; delivery vehicle Liposomes (POPC:DOPS = 9:1), incubation time 90 min, room temperature): 44%
Pc4 Bound to RBC (RBC [4]; liposomal preparation POPC:DOPS = 1:1, 35 minutes at 4° C.): 0.8%
Pc4 Bound to RBC (RBC [4]; liposomal preparation POPC:DOPS = 1:2, 35 minutes at 4° C.): 1.0%
Pc4 Bound to RBC (RBC [4]; liposomal preparation POPC:DOPS = 4:1, 35 minutes at 4° C.): 4.4%
Pc4 Bound to RBC (RBC [4]; liposomal preparation POPC:DOPS = 9:1, 35 minutes at 4° C.): 4.8%
Pc4 Bound to RBC (RBC [4]; liposomal preparation POPC:DOPS:PEG = 8:1:1, 35 minutes at 4° C.): 23.5%
Pc4 Bound to RBC (RBC [4]; liposomal preparation POPC:DOPS:chol = 9:1:10, 35 minutes at 4° C.): 33.7%
Pc4 binding to red cells, effect of liposome composition (RBC [4]; words, PEG, cholesterol or DOPS ratio as stated (Table 2)): progressively reduced binding of Pc4 to red cells

Cc1c(C)c2c(c(C)c1OC(=O)CCC(=O)O)CCC(C)(CCCC(C)CCCC(C)CCCC(C)C)O2 (stereo not drawn) [α-tocopherol succinate]
Hemolysis After 21 Day Storage (RBC [5]; 1 mM α-tocopherol succinate formulated in Ethanol): 10.5%
Hemolysis After 21 Day Storage (RBC [5]; 1 mM α-tocopherol succinate formulated in POPC:DOPS = 4:1): 18.3%
Hemolysis After 21 Day Storage (RBC [5]; 1 mM α-tocopherol succinate formulated in POPC:DOPS:chol = 9:1:10): 6.1%
Hemolysis After 21 Day Storage (RBC [5]; 1 mM α-tocopherol succinate formulated in POPC): 1.2%
